# Data taken from patent US20220315895A1, “METHODS OF MAKING OLIGOPOTENT AND UNIPOTENT PRECURSORS” (Transfusion Health, LLC, priority 2019, published 2022).
# Key:
# [1] = system: CD34+ cells isolated from donor peripheral blood; test: Enhancement of HSCs derived from non-mobilized peripheral blood with compounds of Formula I (Example 33); format: cell-based; conditions: normalized fold change days 2 to 7
# Description: CD34+ cells were isolated from donor peripheral blood. Standard buffy coat separation using ficoll paque was performed. Cells were pelleted and incubated with unlabeled CD64 antibody. Cells then underwent negative depletion using biotinylated CD2, CD3, CD4, CD5, CD8, CD11b, CD14, CD16, CD19, CD20, CD45RA, CD56, CD235 (in some examples CD15, CD25 and other lineage specific antibodies may also be used). Cells which bind these antibodies are depleted using streptavidin beads. The enriched progenitor pool then undergoes cell sorting for CD34+.
# Isolated CD34+ cells were incubated in an in vitro culture media of Alpha MEM without phenol red with 10% (v/v) heat inactivated fetal bovine serum (FBS). When testing compounds of Formula I, two internal controls were used: a positive control (+SF conditions) and a baseline control (i.e. basic conditions (“cytokines only”)). The media components and concentrations used for the compounds tested are described in [0563] Table 2. The culture also included an antibiotic solution that includes penicillin, streptomycin, and amphotericin B to avoid contamination. Controls were included because the amount of expansion in samples obtained varies from individual to individual.
# Cultures were incubated at […] (controlled by nitrogen) and 5% CO2.
# Small molecule components were added separately and fresh each time the media needs to be refreshed. Cytokines can be stored together. Media renewal should occur at least every few days.
# On the days indicated one-half of the volume of the cell culture was removed for data analysis (flow cytometry using a BD FACS ARIA II). The culture volume was replenished with fresh media according to the conditions tested. The data reported accounts for the dilution factor introduced in this procedure.
# Separate experiments were performed for each compound tested (Compound 1.001-1.023).
# (§1) Table 3, below, summarizes the relative expansive effect of Compound 1.001 to 1.023 (sample compounds) at the indicated concentration. The data in Table 3 is reported as the relative expansive effect. The relative expansive effect is a normalized value of the fold changes shown in each of FIG. 1-FIG. 23. It is calculated as shown below: […]
# [2] = system: CD34+ cells from cord blood; test: Expansion of cord blood CD34+ cells, seven-day culture (Example 35); format: cell-based, human; conditions: normalized fold change days 1 to 7
# Description: CD34+ cells from cord blood were purchased from STEMCELL Technologies. Primary human CD34+ cells were isolated from cord blood samples using positive immunomagnetic separation techniques. Cells were thawed and gradually brought to room temperature. Samples were washed, then placed in overnight culture in StemSpan with 100 ng/ml each of FLT3L, TPO, SCF, and TL-6. Eighteen to twenty-four hours later (day 1), cells were counted and immunophenotyped (flow cytometry on an Invitrogen Attune N×T cytometer).
# Approximately 1000 live cells were plated into each well of 96-well plates; exact cell numbers dispensed per well were quantified with flow cytometry for later calculations.
# Media for testing compounds of Formula I was prepared using Alpha MEM without phenol red, 10% (v/v) heat inactivated fetal bovine serum. Culture conditions also included an antibiotic solution that includes penicillin, streptomycin, and amphotericin B to avoid contamination. Additional media components and concentrations used for the compounds tested are described in Table 5.
# All incubations for this experiment took place at 3% oxygen (controlled by nitrogen) and 5% CO2. Following seven days of culture, cells from wells were collected and phenotypes were analyzed (flow cytometry on an Invitrogen Attune N×T cytometer).
# as §1, with “6” for “3,”, “the screened compounds” for “Compound 1.001 to 1.023 (sample compounds)”, “6” for “3”, “the figures.” for “FIG. 1-FIG. 23.”
smiles,measurement,setting,value
"CC(C)(C)C(=O)Nc1ccc2c(c1)C(=O)C1CCCC21 (stereo not shown) [Compound 1.001, N-(8-oxo-1,2,3,3a,8,8a-hexahydrocyclopenta[a]inden-6-yl)pivalamide]",CD90 effect (relative expansive effect on CD34+/CD133+/CD90+ cells),[1]; sample compound 0.5 μM,++ (0.2 ≤ x < 0.55)
same,CD133 effect (relative expansive effect on CD34+/CD133+ cells),[1]; sample compound 0.5 μM,+ (x < 0.2)
"CC(C)(C)C(=O)Nc1ccc2c(c1)C(=O)C1CCCCC21 (stereo not shown) [Compound 1.002, N-(9-oxo-2,3,4,4a,9,9a-hexahydro-1H-fluoren-7-yl)pivalamide]",CD90 effect (relative expansive effect on CD34+/CD133+/CD90+ cells),[1]; sample compound 16 μM,++ (0.2 ≤ x < 0.55)
same,CD133 effect (relative expansive effect on CD34+/CD133+ cells),[1]; sample compound 16 μM,+ (x < 0.2)
"CC(C)(C)OC(=O)Nc1ccc2c(c1)C(=O)c1ccccc1-2 [Compound 1.003, tert-butyl (9-oxo-9H-fluoren-2-yl)carbamate]",CD90 effect (relative expansive effect on CD34+/CD133+/CD90+ cells),[1]; sample compound 0.5 μM,++ (0.2 ≤ x < 0.55)
same,CD133 effect (relative expansive effect on CD34+/CD133+ cells),[1]; sample compound 0.5 μM,++ (0.2 ≤ x < 0.55)
"CC(C)(C)Nc1ccc2c(c1)C(=O)c1ccccc1-2 [Compound 1.004, 2-(tert-butylamino)-9H-fluoren-9-one]",CD90 effect (relative expansive effect on CD34+/CD133+/CD90+ cells),[1]; sample compound 8 μM,+++ (0.55 ≤ x < 0.9)
same,CD133 effect (relative expansive effect on CD34+/CD133+ cells),[1]; sample compound 8 μM,++ (0.2 ≤ x < 0.55)
"CC(C)(C)C(=O)Nc1ccc2c(c1)C(=O)c1ccccc1-2 [Compound 1.005, N-(9-oxo-9H-fluoren-2-yl)pivalamide]",CD90 effect (relative expansive effect on CD34+/CD133+/CD90+ cells),[1]; sample compound 0.125 μM,+++ (0.55 ≤ x < 0.9)
same,CD133 effect (relative expansive effect on CD34+/CD133+ cells),[1]; sample compound 0.125 μM,++ (0.2 ≤ x < 0.55)
same,CD90 effect (relative expansive effect on CD34+/CD133+/CD90+ cells),[2]; sample compound 0.5 μM,++ (1.44 ≤ x < 1.8)
same,CD133 effect (relative expansive effect on CD34+/CD133+ cells),[2]; sample compound 0.5 μM,++ (1.44 ≤ x < 1.8)
CC(C)(C)C(=O)Nc1ccc2c(c1)C(=O)c1c(O)cccc1-2 [Compound 1.006],CD90 effect (relative expansive effect on CD34+/CD133+/CD90+ cells),[1]; sample compound 1 μM,++++ (0.9 ≤ x < 1.25)
same,CD133 effect (relative expansive effect on CD34+/CD133+ cells),[1]; sample compound 1 μM,+++ (0.55 ≤ x < 0.9)
same,CD90 effect (relative expansive effect on CD34+/CD133+/CD90+ cells),[2]; sample compound 2 μM,++ (1.44 ≤ x < 1.8)
same,CD133 effect (relative expansive effect on CD34+/CD133+ cells),[2]; sample compound 2 μM,++ (1.44 ≤ x < 1.8)
"CC(C)(C)C(=O)Nc1ccc2c(c1)C(=O)c1cc(O)ccc1-2 [Compound 1.007, N-(7-hydroxy-9-oxo-9H-fluoren-2-yl)pivalamide]",CD90 effect (relative expansive effect on CD34+/CD133+/CD90+ cells),[1]; sample compound 4 μM,++++ (0.9 ≤ x < 1.25)
same,CD133 effect (relative expansive effect on CD34+/CD133+ cells),[1]; sample compound 4 μM,+++ (0.55 ≤ x < 0.9)
same,CD90 effect (relative expansive effect on CD34+/CD133+/CD90+ cells),[2]; sample compound 2 μM,++++ (2.16 ≤ x < 2.52)
same,CD133 effect (relative expansive effect on CD34+/CD133+ cells),[2]; sample compound 2 μM,++++ (2.16 ≤ x < 2.52)
"CC(=O)Nc1ccc2c(c1)C(=O)c1ccccc1-2 [Compound 1.009, N-(9-oxo-9H-fluoren-2-yl)acetamide]",CD90 effect (relative expansive effect on CD34+/CD133+/CD90+ cells),[1]; sample compound 2 μM,+++++ (1.25 ≤ x)
same,CD133 effect (relative expansive effect on CD34+/CD133+ cells),[1]; sample compound 2 μM,+++++ (1.25 ≤ x)
same,CD90 effect (relative expansive effect on CD34+/CD133+/CD90+ cells),[2]; sample compound 0.5 μM,+++ (1.8 ≤ x < 2.16)
same,CD133 effect (relative expansive effect on CD34+/CD133+ cells),[2]; sample compound 0.5 μM,+++ (1.8 ≤ x < 2.16)
"NC(=O)Nc1ccc2c(c1)C(=O)c1cc(NC(N)=O)ccc1-2 [Compound 1.011, 1,1′-(9-oxo-9H-fluorene-2,7-diyl)diurea]",CD90 effect (relative expansive effect on CD34+/CD133+/CD90+ cells),[1]; sample compound 0.125 μM,++ (0.2 ≤ x < 0.55)
same,CD133 effect (relative expansive effect on CD34+/CD133+ cells),[1]; sample compound 0.125 μM,+ (x < 0.2)
"CC(=O)Nc1ccc2c(c1)C(=O)c1cc(NC(C)=O)ccc1-2 [Compound 1.012, N,N′-(9-oxo-9H-fluorene-2,7-diyl)diacetamide]",CD90 effect (relative expansive effect on CD34+/CD133+/CD90+ cells),[1]; sample compound 0.25 μM,++ (0.2 ≤ x < 0.55)
same,CD133 effect (relative expansive effect on CD34+/CD133+ cells),[1]; sample compound 0.25 μM,++ (0.2 ≤ x < 0.55)
